{"source": "patent US6423352B1", "about": "(priority 1998, dated 2002)", "assay_type_in_all_cases": "in vivo", "key": {"Phytophthora infestans [1]": {"test_system": "Phytophthora infestans", "details": "for % diseased leaf area, late blight tomato, 5 d: Example 17, none 81; for % diseased leaf area, solvent control: Example 12, late blight in tomato, untreated control 81"}, "[2]": {"test_system": "Erysiphe graminis tritici", "test": "powdery mildew in wheat: sprayed plants inoculated, diseased leaf area recorded", "details": "for % diseased leaf area, powdery mildew wheat, 8 d: Example 17, none 69; for % diseased leaf area, wheat powdery mildew, 10 d: Example 14, solvent conc. 1%, inoculation three hours after spray, none (control) 50", "method": "(§1) To test the efficacy of these extracts and suspensions, experiments were performed in which plants were sprayed using a fine glass atomizer with either Inula extract or with pure solvent as a control for the Inula extracts, with either Inula extract and emulsifier or with an emulsifier solution as a control for the emulsified Inula extracts, and with either Inula suspension or with water or emulsifier solution as a control for the Inula suspensions. Treated and control plants were then inoculated with a crop-respective fungal pathogen. After an incubation period, the extent of the infection was measured. Unless otherwise stated, percentage protection from the disease due to the treatment with the Inula extract or suspension was calculated as:\n(§2) % control of the disease=[1−(% infection and treated plants/% infection in control plants)]×100.\nThe crop plants and pathogens used for inoculation are described in the following list.\nInoculation with P. infestants, P. cubensis, P. tabacina, P. viticola, B. cinera and C. fulvum was done by spraying a spore suspension in distilled water onto the upper leaf surfaces of the treated (and the control) plants. Inoculated plants were kept in a dew chamber at 18-20° C. in the dark for 16-20 hours and then in a growth chamber at 20° C. with 12 hours photoperiod. Inoculation with E. graminis and S. fuliginea was done by blowing spores over the treated (and control) plants. Inoculated plants were then kept in a growth chamber as above.\n(§3) Disease records were visually estimated in the inoculated plants at 3-13 days after inoculation, depending on the crop and disease. Percentage leaf area occupied with disease symptoms or fungal colonies was recorded and given in the results section."}, "Phytophthora infestans [3]": {"test_system": "Phytophthora infestans", "details": "for % diseased leaf area, late blight potato, 5 d: Example 17, none 100; for % Protection, late blight in potato / Diseased leaf area, late blight in potato: Example 2; for Diseased leaf area, late blight in potato: recorded 4 days post inoculation, untreated control 98"}, "[4]": {"test_system": "Pseudoperonospora cubensis", "test": "downy mildew in cucumber: sprayed plants inoculated, disease recorded", "details": "Example 14; solvent conc. 1%; inoculation three hours after spray; none (control) 88", "method": "as §1, §2\nThe crop plants and pathogens used for inoculation are described in the following list. […]\nas §3"}}, "note": "Where two headings read alike, the source gives them in different places."}
{"compound": "c1c[nH]cn1", "note": "[Imidazole only, imidazole]", "values": [{"measurement": "% diseased leaf area, late blight tomato, 5 d", "setting": "Phytophthora infestans [1]; imidazole only 0.12% pH 9.55", "result": 95, "unit": "%"}, {"measurement": "% diseased leaf area, late blight tomato, 5 d", "setting": "Phytophthora infestans [1]; imidazole only 0.25% pH 9.70", "result": 88, "unit": "%"}, {"measurement": "% diseased leaf area, late blight tomato, 5 d", "setting": "Phytophthora infestans [1]; imidazole only 0.5% pH 9.86", "result": 69, "unit": "%"}, {"measurement": "% diseased leaf area, late blight tomato, 5 d", "setting": "Phytophthora infestans [1]; imidazole only 1% pH 9.95", "result": 50, "unit": "%"}, {"measurement": "% diseased leaf area, powdery mildew wheat, 8 d", "setting": "[2]; imidazole only 0.12% pH 9.55", "result": 63, "unit": "%"}, {"measurement": "% diseased leaf area, powdery mildew wheat, 8 d", "setting": "[2]; imidazole only 0.25% pH 9.70", "result": 50, "unit": "%"}, {"measurement": "% diseased leaf area, powdery mildew wheat, 8 d", "setting": "[2]; imidazole only 0.5% pH 9.86", "result": 23, "unit": "%"}, {"measurement": "% diseased leaf area, powdery mildew wheat, 8 d", "setting": "[2]; imidazole only 1% pH 9.95", "result": 25, "unit": "%"}, {"measurement": "% diseased leaf area, late blight potato, 5 d", "setting": "Phytophthora infestans [3]; imidazole only 0.12% pH 9.55", "result": 50, "unit": "%"}, {"measurement": "% diseased leaf area, late blight potato, 5 d", "setting": "Phytophthora infestans [3]; imidazole only 0.25% pH 9.70", "result": 50, "unit": "%"}, {"measurement": "% diseased leaf area, late blight potato, 5 d", "setting": "Phytophthora infestans [3]; imidazole only 0.5% pH 9.86", "result": 25, "unit": "%"}, {"measurement": "% diseased leaf area, late blight potato, 5 d", "setting": "Phytophthora infestans [3]; imidazole only 1% pH 9.95", "result": 18, "unit": "%"}]}
{"compound": "N.O", "note": "[NH4OH, ammonium hydroxide]", "values": [{"measurement": "% Protection, late blight in potato", "setting": "Phytophthora infestans [3]; NH4OH 1%", "result": 0, "unit": "%"}, {"measurement": "Diseased leaf area, late blight in potato", "setting": "Phytophthora infestans [3]; NH4OH 1%", "result": 100}, {"measurement": "% Protection, late blight in potato", "setting": "Phytophthora infestans [3]; NH4OH 2%", "result": 0, "unit": "%"}, {"measurement": "Diseased leaf area, late blight in potato", "setting": "Phytophthora infestans [3]; NH4OH 2%", "result": 100}, {"measurement": "% Protection, late blight in potato", "setting": "Phytophthora infestans [3]; NH4OH 4%", "result": 0, "unit": "%"}, {"measurement": "Diseased leaf area, late blight in potato", "setting": "Phytophthora infestans [3]; NH4OH 4%", "result": 100}, {"measurement": "% Protection, late blight in potato", "setting": "Phytophthora infestans [3]; NH4OH 8% (= 2% aqueous NH3)", "result": 0, "unit": "%"}, {"measurement": "Diseased leaf area, late blight in potato", "setting": "Phytophthora infestans [3]; NH4OH 8% (= 2% aqueous NH3), inoculated 2 days after spray", "result": 100}]}
{"compound": "C1CNCCN1.O", "note": "[piperazine hydrate]", "values": [{"measurement": "% diseased leaf area, solvent control", "setting": "Phytophthora infestans [1]; solvent alone 0.05M", "result": 81, "unit": "%"}, {"measurement": "% diseased leaf area, solvent control", "setting": "Phytophthora infestans [1]; solvent alone 0.1M", "result": 81, "unit": "%"}]}
{"compound": "C1CCNCC1", "note": "[piperidine]", "values": [{"measurement": "% diseased leaf area, Tomato late blight, 4 d", "setting": "Phytophthora infestans [1]; Example 14, solvent conc. 1%, inoculation three hours after spray, none (control) 88", "result": 88, "unit": "%"}, {"measurement": "% diseased leaf area, wheat powdery mildew, 10 d", "setting": "[2]", "result": 25, "unit": "%"}, {"measurement": "% diseased leaf area, cucumber downy mildew, 6 d", "setting": "[4]", "result": 94, "unit": "%"}]}
{"compound": "tetraethylene", "values": [{"measurement": "% diseased leaf area, Tomato late blight, 4 d", "setting": "Phytophthora infestans [1]; in vivo", "result": 63, "unit": "%"}, {"measurement": "% diseased leaf area, wheat powdery mildew, 10 d", "setting": "[2]", "result": 50, "unit": "%"}, {"measurement": "% diseased leaf area, cucumber downy mildew, 6 d", "setting": "[4]", "result": 31, "unit": "%"}]}
